# Results as given in patent US4151300A, “Acetohydroxamic acids” (Laboratoire L. Lafon, priority 1976, dated 1979).
# “Also recorded” adds a separate entry of the source. Like-named read-outs stand apart in the source and are kept apart here.
# How the values were obtained:
# mice [1] = test: interaction with reserpine (hypothermia, ptosis); assay type: in vivo; conditions: i.p.
# central nervous system = test: psychopharmacological study / behaviour; assay type: in vivo, mice; conditions: for reactivity: mice
# rats [2] = test: prolonged conditioning to take avoiding action (shuttle box); assay type: in vivo
# Text: Rats placed in a shuttle box are conditioned to avoid an electric shock by changing sides. The shock is preceded by a sound and light stimulus lasting 3 seconds, which ceases when sides are changed or after 8 seconds. The sequence is repeated every 20 seconds. Animals conditioned for several tens of minutes show a percentage of avoidance which is close to 100%. They continue to be subjected to the stimulus […] and gradually they reach a state in which they are no longer able to change sides during the period of 3 seconds during which no shock is delivered.
# As a first approximation, such an effect can be likened to a resumption of conditioned activity in a tired animal.
# Rats placed in a "shuttle box" are conditioned to avoid an electric shock lasting 5 seconds, by changing sides. The shock is preceded, for 3 seconds, by a sound and light stimulus which ceases when the rat changes side, or at the end of 8 seconds. The sequence repeats every 20 seconds. […] They continue to be subjected to the stimulus every 20 seconds and gradually they no longer succeed in avoiding the shock.
# CRL 40,438 is then administered and any resumption of the avoidance movements is followed until the effect ceases.
# rats [3] = test: interaction with amphetamine (stereotypies in rats); assay type: in vivo
# Method: (§1) The following text summarises a part of the results of the tests which were carried out with the products according to the invention, these products (unless otherwise stated) being administered intraperitoneally, in suspension in a gum solution (gum arabic), in a volume of 20 ml/kg in the case of mice and of 5 ml/kg in the case of rats.
# 30 minutes after the administration of CRL 40,373, amphetamine is injected intraperitoneally at a dose of 2 mg/kg.
# Thirty minutes after the administration of CRL 40,385 the rats are given an intraperitoneal injection of 2 mg/kg of amphetamine (6 animals per dose).
# mice [4] = test: spontaneous motility (actimeter); assay type: in vivo
# Method: as §1
# Thirty minutes after having been given CRL 40,373, the mice (6 per dose, 12 comparison animals) are placed in an actimeter, where their motility is recorded for half an hour.
# Thirty minutes after having been given CRL 40,385, the mice are placed in actimeters where their motility is recorded for half an hour.
# mice [5] = test: inter-group aggressiveness (number of fights); assay type: in vivo; conditions: mice, i.p.; for aggressiveness: large/high dose
# Method: as §1
# After three weeks' residence in each of the halves of a cage divided by an opaque partition, the mice receive CRL 40,373 thirty minutes before being brought together by withdrawing the partition.
# After 18 days' residence on either side of a partition separating their cage in the middle, groups of 3 mice receive CRL 40,385 and are brought together half an hour later by withdrawing the partition, and the number of fights which take place in the course of 15 minutes is noted.
# mice [6] = test: interaction with oxotremorine (temperature, trembling, peripheral cholinergic symptoms); assay type: in vivo; conditions: mice, i.p.
# rats [7] = test: interaction with apomorphine (stereotype behaviour in rats); assay type: in vivo
# Method: as §1
# Batches of six rats are each given a subcutaneous injection of apomorphine (0.5 mg/kg) 30 minutes after the administration of CRL 40,373.
# Batches of 6 rats are given a subcutaneous injection of 0.5 mg/kg of apomorphine 30 minutes after the administration of CRL 40,385.
# mice [8] = test: motility reduced by habituation to a cage (residual motility); assay type: in vivo; conditions: i.p.
# Method: as §1
# Mice which have remained for 18 hours in the actimeters are given CRL 40,373. They are immediately replaced in their cages and, after a period of half an hour, their motility is recorded for 30 minutes (6 animals per dose, 12 comparison animals).
# After remaining for 18 hours in the actimeters, the mice receive CRL 40,385. Immediately afterwards they are replaced in their cage and half an hour afterwards the recording of the motility starts and is continued for 30 minutes.
# mice [9] = test: toxicity (isolated mice, intraperitoneal); assay type: in vivo; conditions: for mortality: isolated mice
# Method: as §1
# mice [10] = test: four-plate test; assay type: in vivo, mice (EVIC CEBA strain)
# Method: as §1
# (§2) The test is carried out on batches of 10 sensitive mice (EVIC CEBA strain), 30 minutes after the administration of CRL 40,373.
# (§3) Batches of 10 mice are subjected to the test thirty minutes after having received CRL 40,385.
# mice [11] = test: electrical shock (convulsing effects); assay type: in vivo, mice (EVIC CEBA strain); conditions: mice, i.p.
# Method: as §1, §2, §3
# mice [12] = test: traction (motor incoordination); assay type: in vivo, mice (EVIC CEBA strain)
# man = test: clinical use in man; assay type: in vivo
# mice [13] = test: motility reduced by hypoxia treatment (motor recovery); assay type: in vivo; conditions: mice, i.p.
smiles,measurement,setting,value
"CC(C(=O)NO)C(=O)N(c1ccccc1)c1ccccc1 (centres unmarked) [CRL 40,438, 2-(N,N-Diphenylcarbamoyl)-propionohydroxamic acid]",reserpine-induced hypothermia,mice [1],moderately opposes hypothermia
same,reserpine-induced ptosis,mice [1],moderately opposes hypothermia and ptosis induced by reserpine
same,stereotype movements (product alone),central nervous system; high dose,"presence, at a high dose, of stereotype movements"
same,reactivity,central nervous system,hyper-reactivity in mice
same,psychopharmacological profile / conclusion,"central nervous system; mouse, in vivo",effects of the excitation-inducing type; also recorded: activity of the anti-depressant type or of the psychostimulant type
same,resumption of avoiding actions (prolonged avoidance test),rats [2],"an effect of the ""anti-fatigue"" type"
same,resumption of avoiding actions (prolonged avoidance test),"rats [2]; i.p., 64, 128 and 256 mg/kg",causes a resumption of the avoidance behaviour
same,amphetamine-induced stereotypies,rats [3]; high dose,boosting of the stereotypies induced by apomorphine and by amphetamine
same,spontaneous motility,mice [4]; i.p.,moderate increase in the spontaneous motor activity
same,aggressiveness,mice [5],reduces the aggressive behaviour of mice
same,oxotremorine-induced trembling,mice [6],"moderately opposes hypothermia and ptosis induced by reserpine, and the trembling movements caused by oxotremorine"
same,apomorphine-induced stereotypies,rats [7]; high dose,boosting of the stereotypies induced by apomorphine
same,motility reduced by habituation to the cage,mice [8],very marked stimulant effect where the motility has been reduced by habituation to the cage
same,LD-O (maximum non-lethal dose),"mice [9]; mice, i.p.","greater than 1,024 mg/kg"
"CCCCC(CCCC)(CCCC)C(=O)NO [CRL 40,373, Tributylacetohydroxamic acid]",reserpine-induced hypothermia,mice [1],not modified
same,reserpine-induced ptosis,mice [1],not modified
same,psychopharmacological profile / conclusion,"central nervous system; mouse, in vivo",sedative agent
same,number of incorrect moves (four-plate test),"mice [10]; mice, i.p.",does not cause an increase in the number of incorrect moves
same,amphetamine-induced stereotypies,"rats [3]; rats, i.p.","inhibits the amphetamine-induced stereotypies, this inhibition being proportional to the doses"
same,spontaneous motility,"mice [4]; mice, i.p., 128 and 512 mg/kg",causes a reduction in the (spontaneous) motor activity of the mice
same,aggressiveness,mice [5],reduces the number of fights
same,convulsing effects of the electric shock,mice [11],does not modify the convulsing effects of the electric shock
same,motor incoordination / incapacity,mice [12]; i.p.,does not bring about any major motor incoordination
same,clinical result,"man; tablet 100 mg, 1 to 3 tablets per day",used clinically with success as a sedative
same,oxotremorine-induced trembling,mice [6],no significant influence on the trembling caused by oxotremorine
same,temperature (oxotremorine-induced hypothermia),"mice [6]; 128 and 512 mg/kg, oxotremorine 0.5 mg/kg i.p.",exerts a hypothermia-inducing effect and aggravates the lowering of the temperature produced by oxotremorine
same,peripheral cholinergic symptoms of oxotremorine,mice [6]; high doses (128 and 512 mg/kg),increases the hypersalivation and hyperlacrymation produced by oxotremorine
same,motor recovery after hypoxia/anoxia by pressure reduction,mice [13],does not produce an improvement in the motor recovery of mice
same,apomorphine-induced stereotypies,"rats [7]; rats, i.p.",not influenced
same,motility reduced by habituation to the cage,mice [8],does not cause a resumption of the exploring activity of mice accustomed to their environment
same,mortality,"mice [9]; i.p., 64, 128, 256, 512 and 1,024 mg/kg",No mortality whatsoever
"O=C(CC(=O)N1c2ccccc2CCc2ccccc21)NO [CRL 40,471, 5-(10,11-Dihydro-dibenz[b,f]azepino)-carbonylacetohydroxamic acid]",reserpine-induced hypothermia,mice [1],moderate antagonism against reserpine-induced hypothermia
same,psychopharmacological profile / conclusion,"central nervous system; mouse, in vivo",sedative activity
same,amphetamine-induced stereotypies,"rats [3]; rats, i.p.",does not alter the stereotypies induced by amphetamine
same,spontaneous motility,"mice [4]; mice, i.p., 512 mg/kg",very greatly reduces the spontaneous motility of mice
same,inter-group aggressiveness,mice [5],an effect of the anti-aggressive type appears to manifest itself in the absence of any hypomotility
same,aggressiveness,mice [5],reduces the intra-specific aggressiveness in mice
same,clinical result,"man; tablet 0.250 mg, 2 tablets per day",good results clinically as a sedative
same,motor recovery after hypoxia/anoxia by pressure reduction,mice [13],does not improve the motor recovery in mice
same,motor recovery after hypoxia/anoxia by pressure reduction,mice [13]; 512 mg/kg,motor recovery comparable to that of the comparison mice
same,apomorphine-induced stereotypies,"rats [7]; rats, i.p.",does not alter the stereotypies induced by amphetamine and by apomorphine
same,motility reduced by habituation to the cage,mice [8],does not cause a resumption of the motor activity in mice habituated to their cage
same,LD-O (maximum non-lethal dose),"mice [9]; mouse, in vivo, ip","greater than 1,024 mg/kg"
"O=C(CNC(=O)C(c1ccccc1)c1ccccc1)NO [CRL 40,400, α-(Benzhydrylcarboxamido)-acetohydroxamic acid]",stereotypies induced by reserpine,mice [1],does not modify the stereotypies
same,amphetamine-induced stereotypies,"rats [3]; rats, i.p.",does not modify the stereotypies induced in rats by apomorphine and amphetamine
same,motility,mice [4]; mice,acts on the motility of mice
same,stereotypies induced by oxotremorine,mice [6],does not modify the stereotypies
same,apomorphine-induced stereotypies,"rats [7]; rats, i.p.",does not modify the stereotypies induced in rats by apomorphine
same,mortality,"mice [9]; i.p., 128, 256, 512 and 1,024 mg/kg",does not cause any mortality whatsoever
"COc1ccc(C[S+]([O-])CC(=O)NO)cc1 (centres unmarked) [CRL 40,498, p-Methoxybenzyl-sulphinyl-acetohydroxamic acid]",reserpine-induced hypothermia,mice [1],partial antagonism to reserpine-induced hypothermia
same,reserpine-induced ptosis,mice [1],without alteration of the ptosis
same,body temperature effect (product alone),central nervous system; high dose,hypothermia
same,sedation / sedative effect,central nervous system; high dose(s),sedation
same,reactivity,central nervous system; high dose,"reduction in motility, in aggressiveness and in reactivity"
same,number of incorrect moves (four-plate test),"mice [10]; gastric administration, 512 to 32 mg/kg (and possibly less)",an increase in the number of incorrect moves
same,number of incorrect moves (four-plate test),"mice [10]; i.p., 512 to 2 mg/kg",an increase in the number of incorrect moves
same,spontaneous motility,"mice [4]; mice, high dose",reduction in motility
same,aggressiveness,mice [5],"reduction in motility, in aggressiveness"
same,motor incapacity,mice [12]; high dose,without motor incapacity
same,clinical result,"man; pill 100 mg, 2 pills per day",good results clinically as an anxiolytic agent
same,temperature (oxotremorine-induced hypothermia),mice [6],without alteration of the other hypothermia studied
same,motor recovery after hypoxia/anoxia by pressure reduction,mice [13],a discrete stimulant effect on the motility
same,LD-O (maximum non-lethal dose),"mice [9]; mice, i.p.","greater than 1,204 mg/kg"
same,symptoms / behaviour,"mice [9]; mouse, in vivo, ip, 256 mg/kg","sedation, depressed respiration and reaction to the touch"
O=C(CCN1c2ccccc2Sc2ccccc21)N[O-].[Na+],reserpine-induced ptosis,mice [1]; 128 and 32 mg/kg,aggravates the ptosis induced by reserpine
same,reserpine-induced hypothermia,mice [1]; high dose,aggravates the hypothermia induced by reserpine
same,body temperature effect (product alone),"central nervous system; mouse, in vivo",hypothermia-inducing agent
same,motor activity,"mice [4]; mice, i.p., from 8 mg/kg upwards",reduction of the motor activity
same,lethal effects of the electric shock,mice [11]; high doses (32 and 128 mg/kg),increase in the lethal effects of the electric shock
same,motor incapacity,"mice [12]; mice, i.p., high doses (32 and 128 mg/kg)",substantial motor incapacity
same,oxotremorine-induced trembling,mice [6],does not alter the intensity or duration of the trembling movements induced by oxotremorine
same,temperature (oxotremorine-induced hypothermia),mice [6],contributes its effect to the hypothermia-inducing action of oxotremorine
same,motor recovery after hypoxia/anoxia by pressure reduction,mice [13],not improved
same,motility reduced by habituation to the cage,mice [8],not improved
same,LD-O (maximum non-lethal dose),"mice [9]; mice, i.p.",greater than 256 mg/kg
same,time to death,"mice [9]; mice, i.p., 512 mg/kg",24 h
same,time to death,"mice [9]; mice, i.p., 1,024 mg/kg",0.583 h
